The results in this text go back to ChEMBL document CHEMBL1201862, “PubChem BioAssay data set” (2004).

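Step 1: Grow cells in 96-well plates. Step 2: Expose to compound for 48 hours at 5 concentrations. Step 3: Interpolate endpoints linearly; if unreached, use highest concentration. GI50 marks 50% less growth.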 Calls of active or inactive are those of the source. No stated cut-off is given here; in the data, active = GI50 up to about 1.1 µM and inactive = higher.

Broadly, the GI50 is the concentration at which growth is held to half of that of the control.

Among the test systems are DLD-1; DMS-114; HCT-15; HOP-18; KM-20L2; LXFL 529; M14; M19-MEL; MOLT-4; SNB-78; TK-10; UACC-62; A549; MCF7; NCI/ADR-RES; BT-549; DU-145; MDA-MB-435; MDA-N; SR.
What all share (experiment): DTP human tumour cell line panel, 48 h

Turning to `CCOC(=O)C(=CNC(Cc1c[nH]c2ccccc12)C(=O)OC)C(=O)OCC` (stereo unspecified), the GI50 with DLD-1 was > 100 µM (inactive); in the assay on DMS-114, > 100 µM (inactive); in the assay on HCT-15, over 100 µM; in the assay with HOP-18, 92 µM (inactive); in the assay with KM-20L2 it was > 100 µM (inactive); with LXFL 529, > 100 µM (inactive). For the same compound, the GI50 was > 100 µM (inactive) in the assay with M14; > 100 µM (inactive) in the assay with M19-MEL; > 100 µM (inactive) with MOLT-4; > 100 µM (inactive) with SNB-78; > 100 µM (inactive) in the assay with TK-10; 71.1 µM (inactive) in the assay on UACC-62.
For the compound `CC1C(=O)OC2CC[N+]3(CC(=O)c4ccc(Br)cc4)CC=C(COC(=O)C(C)(O)C1(C)O)C23` (stereo unspecified), the GI50 with A549 is > 375 µM (inactive); in the assay with DLD-1, > 375 µM (inactive); in the assay with DMS-114, > 375 µM (inactive); in the assay on HCT-15, over 375 µM; with HOP-18 it was > 375 µM (inactive); with KM-20L2, > 37.5 µM (inactive). Further, the GI50 in the assay on M19-MEL is > 375 µM (inactive); with MCF7, > 375 µM (inactive); in the assay on MOLT-4 it was > 375 µM (inactive); in the assay on NCI/ADR-RES it was > 375 µM (inactive); in the assay with SNB-78, 211 µM (inactive); in the assay on UACC-62, > 375 µM (inactive).
Turning to `O=c1[nH]nc(NCc2ccccc2)c2nnn(Cc3ccccc3)c12`, the GI50 in the assay with A549 was > 100 µM (inactive); with BT-549, > 100 µM (inactive); in the assay on DU-145 it was > 100 µM (inactive); with HCT-15, over 100 µM; in the assay with M14, > 100 µM (inactive); in the assay with MCF7 it was > 100 µM (inactive). The GI50 with MDA-MB-435, in the assay with MDA-N, in the assay on MOLT-4, in the assay with NCI/ADR-RES, in the assay on SR and in the assay with TK-10 was > 100 µM (inactive) in each case.
Consider `C#CCOc1c(C(=O)OCC)c(=O)n(C)c2ccccc12`, for which the GI50 in the assay with DLD-1 was > 100 µM (inactive); with DMS-114, > 100 µM (inactive); in the assay with HCT-15, over 100 µM; with HOP-18 it was > 100 µM (inactive); in the assay on KM-20L2, > 100 µM (inactive); in the assay on LXFL 529 it was > 100 µM (inactive). The GI50 in the assay on M14, with M19-MEL, with MOLT-4, in the assay with SNB-78, in the assay on TK-10 and with UACC-62 was > 100 µM (inactive) throughout.
In the case of `O=C(N/C(=C\c1cccc([N+](=O)[O-])c1)c1nc2c(O)nc(S)nc2[nH]1)c1ccccc1`, the GI50 with A549 is > 100 µM (inactive); in the assay on DLD-1 it was > 100 µM (inactive); in the assay with DMS-114, 88.9 µM (inactive); with HCT-15, over 100 µM; in the assay on HOP-18, > 100 µM (inactive); in the assay on KM-20L2 it was > 100 µM (inactive). The GI50 in the assay on LXFL 529 was 58.5 µM (inactive); with M14 it was > 100 µM (inactive); in the assay on M19-MEL, > 100 µM (inactive); in the assay with MOLT-4, 94.4 µM (inactive); with SNB-78 it was > 100 µM (inactive); with SR, > 100 µM (inactive). The GI50 in the assay with UACC-62 is > 100 µM (inactive).
With `CN(C)CCNC(=O)Cn1ccc(=O)c2ccc([N+](=O)[O-])cc21`, the GI50 was > 100 µM (inactive) with A549; > 100 µM (inactive) in the assay on DU-145; 73.8 µM in the assay with HCT-15; > 100 µM (inactive) in the assay with M14; > 100 µM (inactive) in the assay on MCF7; > 100 µM (inactive) in the assay on MDA-MB-435. Besides, the GI50 with MDA-N, with MOLT-4, in the assay on NCI/ADR-RES, in the assay on SR, in the assay on TK-10 and in the assay on UACC-62 was > 100 µM (inactive) in each case.
With `N=S(=O)(c1ccccc1)c1ccccc1`, the GI50 in the assay with A549, in the assay on DLD-1, in the assay on DMS-114, in the assay on HOP-18, in the assay with KM-20L2 and in the assay with LXFL 529 was > 100 µM (inactive) in each case. Besides, the GI50 in the assay on M14 was > 100 µM (inactive); with M19-MEL, > 100 µM (inactive); in the assay with MOLT-4 it was 22 µM (inactive); in the assay on SNB-78, > 100 µM (inactive); in the assay with SR, > 100 µM (inactive); with UACC-62 it was > 100 µM (inactive).
As to `NC(CCOCCP(=O)(O)O)C(=O)O` (stereo unspecified), the GI50 in the assay with A549 was > 100 µM (inactive); with BT-549 it was > 100 µM (inactive); in the assay on DU-145, > 100 µM (inactive); in the assay with HCT-15, over 100 µM; in the assay with M14, > 100 µM (inactive); in the assay on MCF7, > 100 µM (inactive). For the same compound, the GI50 in the assay on MDA-MB-435, in the assay with MDA-N, in the assay with MOLT-4, in the assay with NCI/ADR-RES, in the assay with SR and in the assay on TK-10 was > 100 µM (inactive) throughout. Moreover, in the assay with UACC-62, the GI50 was 56.5 µM (inactive).
`CCCOc1nc(N)c2cnn(C3CCCCO3)c2n1` (stereo unspecified): the GI50 is > 100 µM (inactive) with A549; > 100 µM (inactive) in the assay with DLD-1; > 100 µM (inactive) with DMS-114; over 100 µM with HCT-15; 68.9 µM (inactive) in the assay on HOP-18; > 100 µM (inactive) in the assay on KM-20L2. For the same compound, the GI50 in the assay with LXFL 529, in the assay with M14, in the assay on M19-MEL, in the assay on MOLT-4, in the assay with SNB-78 and in the assay on SR was > 100 µM (inactive) in each case. In addition, the GI50 with UACC-62 was > 100 µM (inactive).
For `Cc1n[nH]c(N)c1C(N)=O`, the GI50 was > 100 µM (inactive) in the assay on A549; > 100 µM (inactive) in the assay with DLD-1; > 100 µM (inactive) in the assay on DMS-114; over 100 µM in the assay on HCT-15; < 0.01 µM (active) in the assay with HOP-18; > 100 µM (inactive) with KM-20L2. Besides, the GI50 in the assay with LXFL 529, in the assay on M14, in the assay with MOLT-4, with SNB-78, in the assay on TK-10 and in the assay on UACC-62 was > 100 µM (inactive) each time.
For the compound `CCOC(=O)/C(=C\NC#N)c1nc2ccccc2[nH]1`, the GI50 in the assay on A549 was > 100 µM (inactive); in the assay with BT-549 it was > 100 µM (inactive); in the assay on DU-145, > 100 µM (inactive); in the assay on HCT-15, 91 µM; in the assay on M14, > 100 µM (inactive); in the assay on MCF7 it was > 100 µM (inactive). Also, the GI50 with MDA-MB-435 is > 100 µM (inactive); in the assay with MDA-N it was > 100 µM (inactive); with MOLT-4 it was 5.75 µM (inactive); with NCI/ADR-RES it was > 100 µM (inactive); in the assay with SR, 52.7 µM (inactive); with TK-10, 85.5 µM (inactive). In addition, in the assay on UACC-62, the GI50 was 85.1 µM (inactive).
For `O=C1NC(=O)C2(CCc3ccc(N(CCCl)CCCl)cc32)N1` (stereo unspecified), the GI50 in the assay with A549 was 8.36 µM (inactive); in the assay with DLD-1, 19 µM (inactive); with DMS-114 it was 10.9 µM (inactive); with HCT-15, 15.1 µM; with HOP-18, 20.2 µM (inactive); with KM-20L2, 19.5 µM (inactive). Further, the GI50 is 14.1 µM (inactive) in the assay with M19-MEL; 10.1 µM (inactive) with MCF7; 0.931 µM (active) in the assay on MOLT-4; 9.77 µM (inactive) with NCI/ADR-RES; 22 µM (inactive) in the assay with SNB-78; 4.33 µM (inactive) in the assay with UACC-62.
With `C[Si](C)(OCCS(=O)(=O)O)C1(Cc2cccc3ccccc23)S(=O)(=O)OCCOS1(=O)=O`, the GI50 is 23 µM (inactive) in the assay on A549; 18.5 µM (inactive) in the assay with BT-549; 19.6 µM (inactive) with DU-145; 19.6 µM in the assay on HCT-15; 17.7 µM (inactive) in the assay with M14; 19.4 µM (inactive) in the assay with MCF7. The GI50 with MDA-MB-435 was 18.6 µM (inactive); with MDA-N, 17.8 µM (inactive); with MOLT-4, 34.9 µM (inactive); in the assay with NCI/ADR-RES it was 33.7 µM (inactive); in the assay on TK-10, 20.9 µM (inactive); with UACC-62 it was 17.9 µM (inactive).
For the compound `O=S(=O)(O)c1ccc(-c2c3nc(c(-c4ccc(S(=O)(=O)O)cc4)c4ccc([nH]4)c(-c4ccc(S(=O)(=O)O)cc4)c4nc(c(-c5ccc(S(=O)(=O)O)cc5)c5ccc2[nH]5)C=C4)C=C3)cc1`, the GI50 in the assay on A549 was 55.6 µM (inactive); in the assay on BT-549, 28 µM (inactive); with DU-145, 39.1 µM (inactive); in the assay with HCT-15 it was 26.4 µM; in the assay with M14, > 100 µM (inactive); in the assay on MCF7, > 100 µM (inactive). The GI50 is 61 µM (inactive) with MDA-MB-435; 3.1 µM (inactive) in the assay with MOLT-4; 90.6 µM (inactive) with NCI/ADR-RES; 45.3 µM (inactive) in the assay with SR; 21.6 µM (inactive) in the assay on TK-10; > 100 µM (inactive) with UACC-62.
As to `CC1C(O)[C@@]2(OC[C@@]34C(=O)CC5(O)[C@H](CCC6Cc7nc8c(nc7C[C@]65C)CC5CC[C@@H]6C7=C[C@H]9O[C@@]%10(O[C@@](C)(CO)C[C@@H]%10O)C(C)[C@@]9(O)[C@]7(C)[C@@H](O)CC6[C@]5(C)C8)C3=CC[C@H]4C2C)OC1(C)C` (stereo partly specified), the GI50 was < 0.000355 µM (active) in the assay on A549; 0.0607 µM (active) in the assay with DLD-1; < 0.000355 µM (active) with DMS-114; 0.00667 µM with HCT-15; 0.849 µM (active) in the assay with HOP-18; 0.000796 µM (active) with KM-20L2. Further, the GI50 is 0.442 µM (active) with M19-MEL; < 0.000355 µM (active) with MCF7; < 0.000355 µM (active) in the assay on MOLT-4; > 3.55 µM (inactive) in the assay with NCI/ADR-RES; 0.00146 µM (active) in the assay on SNB-78; < 0.000355 µM (active) in the assay with UACC-62.
As for `OC[C@H]1NC[C@@H](O)[C@@H](O)[C@H]1O`, the GI50 in the assay with BT-549 is > 100 µM (inactive); in the assay with DU-145 it was > 10 µM (inactive); with HCT-15, over 100 µM; in the assay with M14 it was > 100 µM (inactive); in the assay on MCF7, > 100 µM (inactive); with MDA-MB-435, > 100 µM (inactive). Besides, the GI50 in the assay with MDA-N, in the assay on MOLT-4, in the assay on NCI/ADR-RES, in the assay with SR, in the assay with TK-10 and in the assay with UACC-62 was > 100 µM (inactive) in each case.
